Experimental data: patent US20060160847A1, “2,4-Dihalogen-6-(c2-c3alkyl)-phenyl substituted tetramic acid derivatives” (priority 2003, published 2006)

How the values were obtained:
Format in all cases: in vivo
Test plants [1] = test: Post-emergence test; conditions: greenhouse
Method: To produce a suitable preparation of active compound, 1 part by weight of active compound is mixed with the stated amount of solvent, the stated amount of emulsifier is added and the concentrate is diluted with water to the desired concentration.
Test plants of a height of 5-15 cm are sprayed with the preparation of active compounds such that the particular amounts of active compound desired are applied per unit area. The concentration of the spray liquor is chosen such that the particular amounts of active compound desired are applied in 1000 l of water/ha.
After three weeks, the degree of damage to the plants is rated in % damage in comparison to the development of the untreated control.
0%=no effect (like untreated control)

[2] = system: cotton aphids (Aphis gossypii); test: Aphis gossypii test; conditions: active compound concentration 200 ppm, infested cotton leaves dipped
Method: (§1) Aphis Gossypii Test [table] To produce a suitable preparation of active compound, 1 part by weight of active compound is mixed with the stated amounts of solvent and emulsifier, and the concentrate is diluted with emulsifier-containing water to the desired concentration. Cotton leaves (Gossypium hirsutuni) which are heavily infested by cotton aphids (Aphis gossypii) are treated by being dipped into the preparation of active compound of the desired concentration. After the desired period of time, the kill in % is determined. 100% means that all aphids have been killed; 0% means that none of the aphids have been killed.

[3] = system: green peach aphid (Myzus persicae); test: Myzus test; conditions: infested cabbage leaves dipped
Method: as §1, with “Myzus” for “Aphis Gossypii”, “Cabbage” for “Cotton”, “(Brassica oleracea)” for “(Gossypium hirsutuni)”, “the green peach aphid (Myzus persicae)” for “cotton aphids (Aphis gossypii)”

Test plants [4] = test: Pre-emergence test; conditions: greenhouse
Method: Pre-Emergence Test [[[…]]] To produce a suitable preparation of active compound, 1 part by weight of active compound is mixed with the stated amount of solvent, the stated amount of emulsifier is added and the concentrate is diluted with water to the desired concentration. Seeds of the test plants are sown in normal soil. After about 24 hours, the soil is sprayed with the preparation of active compound such that the particular amounts of active compound desired are applied per unit area. The concentration of the spray liquor is chosen such that the particular amounts of active compound desired are applied in 1000 l of water/ha. After three weeks, the degree of damage to the plants is rated in % damage in comparison to the development of the untreated control. The figures denote: 0%=no effect (like untreated control) 100%=total destruction

[5] = system: white fly (Bemisia tabaci) eggs, larvae and puparia; test: Bemisia test; conditions: active compound concentration 40 ppm, infested cotton plants sprayed
Method: Bemisia Test [table] To produce a suitable preparation of active compound, 1 part by weight of active compound is mixed with the stated amounts of solvent and emulsifier, and the concentrate is diluted with water to the desired concentration. Cotton plants (Gossypium hirsutum) which are infested by white fly (Bemisia tabaci) eggs, larvae and puparia are sprayed with the preparation of active compound of the desired concentration. After the desired period of time, the kill in % is determined. 100% means that all animals have been killed; 0% means that none of the animals have been killed.

[6] = system: green rice leaf hopper (Nephotettix cincticeps); test: Nephotettix test; conditions: rice seedlings dipped
Method: (§2) To produce a suitable preparation of active compound, 1 part by weight of active compound is mixed with the stated amounts of solvent and emulsifier, and the concentrate is diluted with emulsifier-containing water to the desired concentration.
Rice seedlings (Oryza satina) are treated by being dipped into the preparation of active compound of the desired concentration and are populated wraith the green rice leaf hopper (Nephotettix cincticeps) while the leafs are still moist.
After the desired period of time, the kill in % is determined. 100% means that all leaf hoppers have been killed; 0% means that none of the leaf hoppers have been killed.

[7] = system: larvae of the mustard beetle (Phaedon cochleariae); test: Phaedon larvae test; conditions: 100 ppm active compound, Phaedon cochleariae larvae on dipped cabbage leaves
Method: Phaedon Larvae Test [[[…]]] To produce a suitable preparation of active compound, 1 part by weight of active compound is mixed with the stated amounts of solvent and emulsifier, and the concentrate is diluted with emulsifier-containing water to the desired concentration. Cabbage leaves (Brassica oleracea) are treated by being dipped into the preparation of active compound of the desired concentration and are populated with larvae of the mustard beetle (Phaedon cochleariae) while the leaves are still moist. After the desired period of time, the kill in % is determined. 100% means that all beetle larvae have been killed; 0% means that none of the beetle larvae have been killed.

[8] = system: greenhouse red spider mite (Tetranychus urticae); test: Tetranychus test (OP-resistant/dip treatment); conditions: 1.6 ppm active compound, Tetranychus urticae on dipped bean plants
Method: Tetranychus Test (OP-Resistant/Dip Treatment)
as §2
Bean plants (Phaseolus vulgaris) which are heavily infested by all stages of the greenhouse red spider mite (Tetranychus urticae) are dipped into a preparation of active compound of the desired concentration.
After the desired period of time, the effect in % is determined. 100% means that all spider mites have been killed; 0% means that none of the spider mites have been killed.

[9] = active compound concentration 8 ppm

CCc1cc(Cl)cc(Cl)c1C1=C(O)C2(CCC(C)CC2)NC1=O (single isomer, unassigned) [Ex. I-a-2]
% damage, Bromus (Test plants [1]; 125 g of a.i./ha): 90% | % damage, Echinochloa (Test plants [1]; 125 g of a.i./ha): 100% | % damage, Lolium (Test plants [1]; 125 g of a.i./ha): 100% | % damage, Sorghum (Test plants [1]; 125 g of a.i./ha): 100% | % damage, cotton (Test plants [1]; 125 g of a.i./ha, cotton): 0% | Kill rate in % after 6^d [2]: 90% | Kill rate in % after 6^d [3, 9]: 95%

CCc1cc(Cl)cc(Cl)c1C1=C(O)C2(CCC(OC)CC2)NC1=O (single isomer, unassigned) [Ex. I-a-3]
% damage, Alopecurus (Test plants [1]; 250 g of a.i./ha): 100% | % damage, Avena fatua (Test plants [1]; 250 g of a.i./ha): 100% | % damage, Sinapis (Test plants [1]; 250 g of a.i./ha): 80% | % damage, Alopecurus (Test plants [4]; 30 g of a.i./ha): 100% | % damage, Avena fatua (Test plants [4]; 30 g of a.i./ha): 70% | % damage, Digitaria (Test plants [4]; 30 g of a.i./ha): 100% | % damage, Lolium (Test plants [4]; 30 g of a.i./ha): 100% | % damage, Setaria (Test plants [4]; 30 g of a.i./ha, Setaria): 100% | % damage, cotton (Test plants [4]; 30 g of a.i./ha, cotton): 0% | % damage, sugar beet (Test plants [4]; 30 g of a.i./ha, sugar beet): 0% | Kill rate in % after 6^d [3, 9]: 85%

CCc1cc(Br)cc(Cl)c1C1=C(O)C2(CCC(C)CC2)NC1=O (single isomer, unassigned) [Ex. I-a-6]
% damage, Abutilon (Test plants [1]; 60 g of a.i./ha): 70% | % damage, Echinochloa (Test plants [1]; 60 g of a.i./ha): 95% | % damage, Lolium (Test plants [1]; 60 g of a.i./ha): 90% | % damage, Setaria (Test plants [1]; 60 g of a.i./ha): 100% | % damage, Sorghum (Test plants [1]; 60 g of a.i./ha): 90% | % damage, Avena fatua (Test plants [4]; 60 g of a.i./ha): 90% | % damage, Echinochloa (Test plants [4]; 60 g of a.i./ha): 100% | % damage, Lolium (Test plants [4]; 60 g of a.i./ha): 95% | % damage, Veronica (Test plants [4]; 60 g of a.i./ha, Veronica): 100% | % damage, soybean (Test plants [4]; 60 g of a.i./ha): 0% | % damage, wheat (Test plants [4]; 60 g of a.i./ha, wheat): 0%

CCc1cc(Br)cc(Cl)c1C1=C(O)C2(CCC(OC)CC2)NC1=O (single isomer, unassigned) [Ex. I-a-7]
% damage, Abutilon (Test plants [1]; 250 g of a.i./ha): 80% | % damage, Amaranthus (Test plants [1]; 250 g of a.i./ha, Amaranthus): 70% | % damage, Cyperus (Test plants [1]; 250 g of a.i./ha, Cyperus): 80% | % damage, sugar beet (Test plants [1]; 250 g of a.i./ha): 0% | % damage, Avena fatua (Test plants [4]; 125 g of a.i./ha): 95% | % damage, Bromus (Test plants [4]; 125 g of a.i./ha): 100% | % damage, Echinochloa (Test plants [4]; 125 g of a.i./ha): 100% | % damage, Matricaria (Test plants [4]; 125 g of a.i./ha, Matricaria): 80% | Kill rate in % after 6^d ([3]; active compound concentration 1.6 ppm): 65%

CCc1cc(Cl)cc(Br)c1C1=C(O)C2(CCC(OC)CC2)NC1=O (single isomer, unassigned) [Ex. I-a-10]
% damage, Alopecurus (Test plants [1]; 30 g of a.i./ha): 95% | % damage, Avena fatua (Test plants [1]; 30 g of a.i./ha): 95% | % damage, Bromus (Test plants [1]; 30 g of a.i./ha): 90% | % damage, Digitaria (Test plants [1]; 30 g of a.i./ha, Digitaria): 100% | % damage, Lolium (Test plants [1]; 30 g of a.i./ha): 95% | % damage, Setaria (Test plants [1]; 30 g of a.i./ha): 100% | % damage, sugar beet (Test plants [1]; 30 g of a.i./ha): 0% | % damage, Alopecurus (Test plants [4]; 125 g of a.i./ha): 100% | % damage, Avena fatua (Test plants [4]; 125 g of a.i./ha): 90% | % damage, Bromus (Test plants [4]; 125 g of a.i./ha): 90% | % damage, Digitaria (Test plants [4]; 125 g of a.i./ha): 100% | % damage, soybean (Test plants [4]; 125 g of a.i./ha): 0%

CCc1cc(Br)cc(Cl)c1C1=C(OC(=O)C(C)C)C2(CCC(C)CC2)NC1=O (single isomer, unassigned) [Ex. I-b-2]
Kill rate in % after 10^d [5]: 100% | % damage, Digitaria (Test plants [4]; 30 g of a.i./ha): 70% | % damage, Echinochloa (Test plants [4]; 30 g of a.i./ha): 70% | % damage, Lolium (Test plants [4]; 30 g of a.i./ha): 95% | % damage, corn (Test plants [4]; 30 g of a.i./ha, corn): 0% | % damage, soybean (Test plants [4]; 30 g of a.i./ha): 0%

CCOCC(=O)OC1=C(c2c(Cl)cc(Br)cc2CC)C(=O)NC12CCC(C)CC2 (single isomer, unassigned) [Ex. I-b-3]
Kill rate in % after 6^d ([6]; active compound concentration 0.1 ppm): 40% | Kill rate in % after 7d [7]: 100%

CCc1cc(Cl)cc(Cl)c1C1=C(O)C2(CCOCC2)NC1=O [Ex. I-a-5]
% damage, Alopecurus (Test plants [1]; 250 g of a.i./ha): 95% | % damage, Avena fatua (Test plants [1]; 250 g of a.i./ha): 100% | % damage, Setaria (Test plants [1]; 250 g of a.i./ha): 100% | % damage, Sinapis (Test plants [1]; 250 g of a.i./ha): 70%

CCc1cc(Cl)cc(Br)c1C1=C(O)C(C)(C)NC1=O [Ex. I-a-11]
% damage, Alopecurus (Test plants [1]; 250 g of a.i./ha): 100% | % damage, Setaria (Test plants [1]; 250 g of a.i./ha): 100% | % damage, sugar beet (Test plants [1]; 250 g of a.i./ha): 0% | Kill rate in % after 6^d ([6]; active compound concentration 10 ppm): 100% | Kill rate in % after 14d [8]: 80%
